One experiment deals with CtBP2 (Homo sapiens, UniProt P56545). The experiment in a line: Isothermal titration calorimetry. It is filed as binding.
Experiment [1] deals with CtBP. It is filed as biochemical, human.
Experiment [2] has as its system HCT116 colon cancer cells. Conditions: through displacement of CtBP2 from the Bik promoter; cited from earlier work.
Another experiment deals with mouse xenograft models. Conditions: compared with untreated mice; cited from earlier work.
Experiment [3] relates to CtBP. Conditions: cited from earlier work.
Another experiment addresses CtBP1 (Homo sapiens, UniProt Q13363). The experiment in a line: Isothermal titration calorimetry. Conditions: CtBP1, pH 7.5, displacement ITC with HIPP. (In general: Isothermal titration calorimetry measures the heat released or taken up as one component is titrated into another.)
Experiment [4] concerns CtBP. Conditions: cited from earlier work. This is another data set of the same source.
[5] abbreviates: CtBP2, pH 8.5, competitive displacement ITC with HIPP.

`CSCCC(=O)C(=O)O` [MTOB, 4-methylthio 2-oxobutyric acid]: the “binding dissociation constant, direct ITC measurement” value on CtBP2 (CtBP2, direct titration, low signal) is given as “low millimolar range”. In addition, at CtBP2 (setting [5]), the ΔG is -3.4 kcal, the ΔH is -3.4 ± 0.34 kcal/mol and the “−TΔS” value amounted to 0.0 kcal/mol. Also, in the experiment on CtBP [1] (MTOB in excess), the substrate inhibition entry is given as “exhibits substrate inhibition when in excess”. The apoptosis entry in experiment [2] was “induced apoptosis”. Moreover, in the experiment with mouse xenograft models, the survival result was “prolonged survival” and the tumor burden entry was “decreased tumor burden”. Besides, the “concentrations required for (substrate) inhibition of CtBP” value in the experiment on CtBP [3] was > 300 µM. On CtBP1, the ΔG was -3.9 kcal, the ΔH is -11.3 ± 0.83 kcal/mol and the “−TΔS” value turned out to be 7.4 kcal/mol.

With `NC(=O)C1=CN([C@@H]2O[C@H](COP(=O)(O)OP(=O)(O)OC[C@H]3O[C@@H](n4cnc5c(N)ncnc54)[C@H](O)[C@@H]3O)[C@@H](O)[C@H]2O)C=CC1` [NADH], in the experiment on CtBP [4], the “affinity of CtBP for NADH relative to NAD+” value was 100 fold.

For the compound `O=C(O)C(=O)Cc1ccccc1` [PPy, phenylpyruvate], the “binding relative to MTOB (ITC injection peaks)” value on CtBP2 (CtBP2, low PPy concentrations, CtBP2 precipitation prevented quantitation) was “tighter than MTOB”. Also, in the experiment on CtBP [1] (CtBP dehydrogenase function, after 15 minutes), the half-maximal inhibitory concentration (IC50) was 135 µM.

As a reminder, the IC50 is the midpoint of a concentration-inhibition curve.

The values above are taken from PMC4844192 (ACS chemical biology, 2015).
